Entries after “also recorded” stand apart in the source; their conditions may differ.
Tests used:
[1] = target: T1, asc-1 of mouse (co-expressed with 4F2hc of mouse) (Mus musculus, UniProt P63115); test: Incorporation of radiolabeled amino acids and analogs by oocytes co-expressing asc-1 and 4F2hc; assay type: cell-based; settings: for incorporation into the oocytes as substrate: radiolabeled substrate, oocytes expressing both asc-1 and 4F2hc, Na+-free uptake solution; for transport by asc-1 (affinity in words): summary statement, asc-1 co-existing with 4F2hc
T1 construct: expressed in transfected cells; host or cells: Xenopus oocytes injected with cRNA
T1 sequence (P63115 1-530): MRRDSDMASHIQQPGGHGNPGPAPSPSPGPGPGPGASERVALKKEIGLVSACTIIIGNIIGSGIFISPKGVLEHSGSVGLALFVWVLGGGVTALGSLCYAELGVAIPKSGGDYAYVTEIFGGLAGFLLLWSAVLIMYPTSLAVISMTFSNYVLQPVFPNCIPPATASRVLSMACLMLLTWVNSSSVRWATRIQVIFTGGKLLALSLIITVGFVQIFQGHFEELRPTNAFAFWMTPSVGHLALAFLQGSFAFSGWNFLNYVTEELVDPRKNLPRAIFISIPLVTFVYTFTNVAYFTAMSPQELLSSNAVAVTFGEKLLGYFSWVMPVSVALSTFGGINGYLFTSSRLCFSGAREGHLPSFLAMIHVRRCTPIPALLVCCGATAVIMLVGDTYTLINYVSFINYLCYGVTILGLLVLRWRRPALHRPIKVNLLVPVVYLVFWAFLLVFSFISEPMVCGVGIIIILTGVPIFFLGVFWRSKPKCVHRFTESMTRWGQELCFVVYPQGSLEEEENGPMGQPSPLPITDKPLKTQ
T1 sequence (P10852 1-526 partner): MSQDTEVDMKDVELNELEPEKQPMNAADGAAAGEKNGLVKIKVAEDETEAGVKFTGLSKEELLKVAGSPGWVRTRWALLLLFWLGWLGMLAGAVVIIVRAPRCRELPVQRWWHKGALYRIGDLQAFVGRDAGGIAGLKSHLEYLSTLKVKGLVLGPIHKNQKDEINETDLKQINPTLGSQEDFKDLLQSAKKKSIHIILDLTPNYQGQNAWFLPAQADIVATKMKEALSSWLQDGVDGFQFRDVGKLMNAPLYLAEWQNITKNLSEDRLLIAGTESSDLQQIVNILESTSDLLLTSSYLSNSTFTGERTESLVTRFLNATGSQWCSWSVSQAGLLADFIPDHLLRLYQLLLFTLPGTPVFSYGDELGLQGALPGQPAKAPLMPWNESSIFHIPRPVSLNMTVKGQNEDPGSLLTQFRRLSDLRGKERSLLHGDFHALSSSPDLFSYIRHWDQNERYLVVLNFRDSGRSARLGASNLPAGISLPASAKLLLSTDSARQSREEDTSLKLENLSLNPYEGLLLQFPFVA
Experimental: Incorporation of alanine when asc-1 gene cRNA of mouse was solely expressed in oocytes of Xenopus and when asc-1 gene cRNA of mouse and 4F2hc gene cRNA of mouse were expressed in oocytes of Xenopus together was compared.
Into oocytes were injected 12 ng of asc-1 gene cRNA of mouse, 13 ng of 4F2hc gene cRNA of mouse or 12 ng asc-1 gene cRNA of mouse/13 ng of 4F2hc gene cRNA of mouse to express followed by incubating for 3 days. […] Thus, the oocytes were allowed to stand for 30 minutes in a Na^+-free uptake solution [100 mM choline chloride, 2 mM potassium chloride, 1.8 mM calcium chloride, 1 mM magnesium chloride, 5 mM HEPES; pH 7.4] containing ^14C-alanine (100 μM) as a substrate and the rate of the substrate incorporated into the cells was measured by way of counting the radioactivity incorporated thereinto.
In an experiment of incorporation of alanine by oocytes into which both asc-1 gene cRNA and 4F2hc gene cRNA of mouse were injected together, influence of the salt added to the medium was investigated.
The experiment of incorporation of alanine was carried out in accordance with the method mentioned in the above Example 2(1) using oocytes into which both asc-1 gene cRNA and 4F2hc gene cRNA of mouse were injected together. When the influence of sodium ion was checked however, a standard uptake solution (where 100 mM choline chloride was substituted with 100 mM sodium chloride) was used in place of the Na^+-free uptake solution as the uptake solution. When the influence of chlorine ion was checked, a gluconic acid uptake solution (where 100 mM sodium chloride was substituted with 100 mM sodium gluconate) was used in place of the standard uptake solution.
Incorporation by asc-1 was investigated using various amino acids and analogs thereof as substrates. Experiment for incorporation of various amino acids and analogs thereof was carried out according to the method mentioned in the above Example 2(1) using oocytes into which asc-1 gene cRNA of mouse and 4F2hc gene cRNA of mouse were injected together. With regard to the substrates however, various compounds labeled with radioactivity were used in place of ^14C-alanine.
Influence of pH was checked in an experiment for incorporation of alanine by oocytes into which both asc-1 gene cRNA and 4F2hc gene cRNA of mouse were injected together. With regard to an experiment for incorporation of alanine, the method according to that mentioned in the above Example 2 (1) was carried out using oocytes into which both asc-1 gene cRNA of mouse and 4F2hc gene cRNA of mouse were injected together.

[2] = target: T1, asc-1 of mouse (co-expressed with 4F2hc of mouse); test: Release of preloaded 14C-alanine from oocytes co-expressing asc-1 and 4F2hc on extracellular addition of compound; assay type: cell-based; settings: for increase in the release of preloaded 14C-alanine: 100 μM compound added to Na+-free uptake solution, room temperature
Experimental: (§1) Release of a preloaded ^14C-alanine mediated by asc-1 was checked in the oocytes into which both asc-1 gene cRNA and 4F2hc gene cRNA of mouse were injected together. ^14C-Alanine (−3nCi) of 100 μM in an amount of 100 nl was injected into the oocytes into which both asc-1 gene cRNA and 4F2hc gene cRNA of mouse were injected together, washed with an ice-cooled Na^+-free uptake solution containing no alanine and transferred to a Na^+-free uptake solution to which alanine (100 μM) was added or not added at room temperature (18° C.-22° C.) and the amount of ^14C-alanine released outside the cells was measured.
In oocytes into which cRNA of asc-1 gene and cRNA of 4F2hc gene of mouse were injected together, release of preloaded ^14C-alanine mediated by asc-1 was investigated whereupon it was checked whether the compound which inhibited the incorporation of ^14C-alanine mediated by asc-1 was a substrate of asc-1.
as §1, with “^14C-Alanine” for “Release of a preloaded ^14C-alanine mediated by asc-1 was checked in the oocytes into which both asc-1 gene cRNA and 4F2hc gene cRNA of mouse were injected together. ^14C-Alanine”, “which amino acid or amino acid analog” for “which alanine”
Black bars in FIG. 18 are the case where there were used oocytes into which cRNA of mouse asc-1 gene and cRNA of mouse 4F2hc gene were injected while white bars are the case where there were used oocytes into which water was injected instead of cRNA as a control.

| SMILES | incorporation into the oocytes as substrate [1] | transport by asc-1 (affinity in words) [1] | increase in the release of preloaded 14C-alanine [2] | influence of pH on incorporation of alanine [1] | influence of salt on incorporation of alanine ([1]; choline changed to sodium, chlorine ion changed to gluconic acid ion) | release of 14C-alanine without alanine outside the cells ([2]; alanine not added to Na+-free uptake solution) |
| --- | --- | --- | --- | --- | --- | --- |
| N[C@@H](CO)C(=O)O [L-Serine] | big incorporation | highly affinitive | high increase | – | – | – |
| C[C@H](N)C(=O)O [L-Alanine] | big incorporation | highly affinitive | significantly increased; also recorded: high increase | no significant dependency on pH | does no affect | significant release |

Reference: US20070122422A1, “Sodium-independent small neutral amino acid transporter transporting L- and D- amino acids” (Japan Science and Technology Corporation, priority 2000, published 2007)
